Inconclusive results and toxic doses are left out. Rule for the calls: active = survival T/C of 150% or more; inactive = T/C below 125% in these data.
Tested on: CD2F1 mice, L1210 leukemia ip, survival T/C
Assay: NCI In Vivo Anticancer Drug Screen. Data for tumor model L1210 Leukemia (intraperitoneal) in CD2F1 (CDF1) mice
Settings: higher = longer survival
How it was run: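 Activity against a transplanted murine tumor was judged by comparing the compound group with a vehicle group. The outcome in the treated animals was divided by that in the controls.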

[1] = endpoint: mean survival time, dose: 100.0 mg/kg/injection, schedule: Q04DX002 (ip), vehicle: saline with Tween-80
[2] = endpoint: mean survival time, dose: 200.0 mg/kg/injection, schedule: Q04DX002 (ip), vehicle: saline with Tween-80
[3] = endpoint: mean survival time, dose: 400.0 mg/kg/injection, schedule: Q04DX002 (ip), vehicle: saline with Tween-80
[4] = endpoint: mean survival time, dose: 100.0 mg/kg/injection, schedule: Q04DX003 (ip), vehicle: saline with Tween-80
[5] = endpoint: mean survival time, dose: 200.0 mg/kg/injection, schedule: Q04DX003 (ip), vehicle: saline with Tween-80
[6] = endpoint: mean survival time, dose: 200.0 mg/kg/injection, schedule: Q01DX009 (ip), vehicle: saline with Tween-80
[7] = endpoint: mean survival time, dose: 100.0 mg/kg/injection, schedule: Q01DX009 (ip), vehicle: saline with Tween-80
[8] = endpoint: mean survival time, dose: 400.0 mg/kg/injection, schedule: Q04DX003 (ip), vehicle: saline with Tween-80

Measured: T/C

COc1c(C)c2c(c(O)c1CCNc1ccc(S(N)(=O)=O)cc1)C(=O)OC2
inactive: [1] 100 % of control | [2] 96 % of control | [3] 100 % of control

Cc1cc(N=Nc2ccc(S(=O)(=O)[O-])cc2)cc(C(=O)[O-])c1[OH2+].Cc1cc(N=Nc2ccc(S(=O)(=O)[O-])cc2)cc(C(=O)[O-])c1[OH2+].NC1CCCCC1N.[Na+].[Pt+4]
inactive: endpoint: median survival time, dose: 50.0 mg/kg/injection, schedule: Q04DX003 (ip), vehicle: saline with Tween-80 106 % of control
active: endpoint: median survival time, dose: 6.25 mg/kg/injection, schedule: Q04DX003 (ip), vehicle: saline with Tween-80 172 % of control | endpoint: median survival time, dose: 6.25 mg/kg/injection, schedule: Q04DX003 (ip), vehicle: saline 172 % of control | endpoint: median survival time, dose: 12.5 mg/kg/injection, schedule: Q04DX003 (ip), vehicle: saline with Tween-80 344 % of control | endpoint: median survival time, dose: 12.5 mg/kg/injection, schedule: Q04DX003 (ip), vehicle: saline 253 % of control | endpoint: median survival time, dose: 25.0 mg/kg/injection, schedule: Q04DX003 (ip), vehicle: saline with Tween-80 313 % of control | endpoint: median survival time, dose: 25.0 mg/kg/injection, schedule: Q04DX003 (ip), vehicle: saline 289 % of control

O=C1OC(Cc2ccccc2)(c2ccccc2)c2ccccc21 (centres undefined)
inactive: [4] 88 % of control | [5] 88 % of control

O=C1c2cccc3c2C2(O)c4c1cccc4C(=O)c1cccc(c12)C3=O
inactive: endpoint: mean survival time, dose: 132.0 mg/kg/injection, schedule: Q01DX009 (ip), vehicle: saline with Tween-80 104 % of control | [6] 121 % of control

NC(=O)C(=O)N/N=C/c1ccc2c(c1)CCC2
inactive: endpoint: mean survival time, dose: 12.5 mg/kg/injection, schedule: Q04DX003 (ip), vehicle: saline with Tween-80 97 % of control | endpoint: mean survival time, dose: 25.0 mg/kg/injection, schedule: Q04DX003 (ip), vehicle: saline with Tween-80 94 % of control | endpoint: mean survival time, dose: 50.0 mg/kg/injection, schedule: Q04DX003 (ip), vehicle: saline with Tween-80 92 % of control

NC(=O)CC[n+]1ccccc1
inactive: endpoint: mean survival time, dose: 12.5 mg/kg/injection, schedule: Q04DX003 (ip), vehicle: saline 97 % of control | endpoint: mean survival time, dose: 25.0 mg/kg/injection, schedule: Q04DX003 (ip), vehicle: saline 97 % of control | endpoint: mean survival time, dose: 50.0 mg/kg/injection, schedule: Q04DX003 (ip), vehicle: saline 96 % of control

O=C(O)CCOc1cc(F)c(Cl)cc1Cl
inactive: [1] 94 % of control | [2] 86 % of control | [3] 86 % of control

CCCCCCCCCCCCCCBr
inactive: endpoint: mean survival time, dose: 50.0 mg/kg/injection, schedule: Q01DX009 (ip), vehicle: saline with Tween-80 96 % of control | [7] 103 % of control | [6] 96 % of control

O=[N+]([O-])c1ccccc1-c1cc(-c2ccccc2)nn1-c1ccccc1
inactive: [7] 102 % of control | [4] 98 % of control | [6] 103 % of control | [5] 98 % of control | endpoint: mean survival time, dose: 400.0 mg/kg/injection, schedule: Q01DX009 (ip), vehicle: saline with Tween-80 97 % of control | [8] 95 % of control

CC1CCCN(N=Nc2ccc(Br)cc2-c2nc(N)c3cc(Br)ccc3n2)C1 (centres undefined)
inactive: endpoint: mean survival time, dose: 100.0 mg/kg/injection, schedule: Q01DX001 (ip), vehicle: Klucel (hydroxypropylcellulose) (HPC) 103 % of control | endpoint: mean survival time, dose: 400.0 mg/kg/injection, schedule: Q01DX001 (ip), vehicle: Klucel (hydroxypropylcellulose) (HPC) 90 % of control

COc1cccc(CCCC(=O)O)c1
inactive: endpoint: mean survival time, dose: 100.0 mg/kg/injection, schedule: Q04DX003 (ip), vehicle: Klucel (hydroxypropylcellulose) (HPC) 101 % of control | endpoint: mean survival time, dose: 200.0 mg/kg/injection, schedule: Q04DX003 (ip), vehicle: Klucel (hydroxypropylcellulose) (HPC) 101 % of control | endpoint: mean survival time, dose: 400.0 mg/kg/injection, schedule: Q04DX003 (ip), vehicle: Klucel (hydroxypropylcellulose) (HPC) 101 % of control

O=C(Nc1cccc(Cl)c1)c1ccc(C(=O)Nc2cccc(Cl)c2)cc1
inactive: endpoint: mean survival time, dose: 75.0 mg/kg/injection, schedule: Q01DX001 (ip), vehicle: saline 100 % of control | endpoint: mean survival time, dose: 150.0 mg/kg/injection, schedule: Q01DX001 (ip), vehicle: saline 98 % of control | endpoint: mean survival time, dose: 300.0 mg/kg/injection, schedule: Q01DX001 (ip), vehicle: saline 102 % of control

O=C(O)C1(NO)CCCCC1
inactive: endpoint: mean survival time, dose: 12.5 mg/kg/injection, schedule: Q01DX009 (ip), vehicle: Klucel (hydroxypropylcellulose) (HPC) 102 % of control | endpoint: mean survival time, dose: 25.0 mg/kg/injection, schedule: Q01DX009 (ip), vehicle: Klucel (hydroxypropylcellulose) (HPC) 101 % of control | endpoint: mean survival time, dose: 50.0 mg/kg/injection, schedule: Q01DX009 (ip), vehicle: Klucel (hydroxypropylcellulose) (HPC) 103 % of control | endpoint: mean survival time, dose: 100.0 mg/kg/injection, schedule: Q01DX009 (ip), vehicle: Klucel (hydroxypropylcellulose) (HPC) 100 % of control | endpoint: mean survival time, dose: 200.0 mg/kg/injection, schedule: Q01DX009 (ip), vehicle: Klucel (hydroxypropylcellulose) (HPC) 97 % of control | endpoint: mean survival time, dose: 400.0 mg/kg/injection, schedule: Q01DX009 (ip), vehicle: Klucel (hydroxypropylcellulose) (HPC) 102 % of control

CC1CCCCC1C(C)(C#N)Nc1ccccc1 (centres undefined)
inactive: [4] 103 % of control | [5] 104 % of control | [8] 97 % of control
